Test [1] concerns alpha-cells. The experiment in a line: alpha-cell replication in dissociated rat islet cells (glucagon/ki-67 imaging). In kind it is cell-based. The settings on record: compound for 48 hours. Here is the method: (§1) Rat islets were isolated and plated as previously described. In brief, rat islets were disassociated using 0.25% trypsin to obtain single cell suspension with occasional clusters of 2-3 cells. These cells were then plated in a 96-well format at a density of 80 k cells/well. The wells were pre-treated with conditioned media produced by the rat bladder carcinoma cell line 804G. After 48-hours, the cells were treated with compound at the indicated concentration or vehicle alone for 48 hours. The cells were then fixed and stained as previously described for the beta-cell marker PDX-1 and the replication marker ki-67. The beta-cell replication rate (the percentage of PDX-1^+ Cells that co-expressed ki-67) was quantified via automated imaging acquisition and analysis using a Cellomic ArrayScan. Each experimental was performed in replicas of four. p-values indicate a 2-tailed T-Test.
(§2) To quantify beta-cell replication rate, cells were identified as beta-cells if the contained both nuclear PDX-1 expression and cytoplasmic insulin staining. Replicating beta-cells were identified by the co-staining for ki-67. Alpha-cell replication was determined by determining the fraction of alpha-cells that co-expressed ki67. An alpha-cell was defined by the presence of cytoplasmic glucagon staining and the absence of nuclear PDX-1 staining. The fraction of dividing alpha-cells was determined by the proportion of alpha cells that co-expressed ki-67.

Test [2] relates to beta-cells. Briefly: beta-cell replication in dissociated rat islet cells (PDX-1/ki-67 imaging). The class given is cell-based. The settings on record: compound for 48 hours, relative to vehicle/DMSO control. The method, then:
as §1, §2

Test [3] can be described thus: plasma insulin levels in vivo after intraperitoneal glucose. The following applies: 30 minutes after treatment and intraperitoneal (IP) delivery of glucose, compared to DMSO.
In test [4] the test system is wild-type mice. Briefly: glucose tolerance in wild-type mice. The class given is in vivo, mouse.
For test [5], the system named is wild-type mice. The experiment in a line: plasma GLP-1 levels in vivo. The settings on record: 30 minutes after treatment, 0.3 mg/kg Tadalafil, 0.25 mg/kg Dipyridamole, 0.45 mg/kg Vardenafil.
The subject of test [6] is GLP-1R signaling. The experiment in a line: glucose tolerance via GLP-1R signaling. The settings on record: FIGS. 15A-15C.
The test system of test [7] is diet-induced obesity (DIO) mice. The experiment in a line: glucose tolerance in diet-induced obesity (DIO) mice. The class given is in vivo. The settings on record: diet-induced obesity (DIO) mouse model of human diabetes.
Test [8] deals with isolated rat islets. The experiment in a line: in vitro islet insulin secretion assay, rat islets. The following applies: for islet insulin secretion: isolated rat islets.
Test [9] relates to human islets. The experiment in a line: in vitro islet insulin secretion assay, human islets. In kind it is cell-based.
Test [10] deals with recombinant PDE5 (Homo sapiens, UniProt O76074). The settings on record: in vitro selectivity assay using recombinant PDE. From the text:
Rows list the PDE inhibitors. Columns list the recombinant human PDE enzymes.

In test [11] the test system is primary intestinal crypt culture. The experiment in a line: endogenous GLP-1 secretion in primary intestinal crypt culture. The settings on record: compared to control.
In test [12] the test system is diabetic DB mice. The experiment in a line: glucose tolerance in diabetic DB mice. The following applies: for glucose tolerance: compound by itself. The class given is in vivo, mouse.
Where [13] appears, read: co-administered with DPP-4 inhibitor Sitagliptin, wild-type mice (FIG. 11), Tadalafil data not shown.
[14] abbreviates: wild-type mice, compound by itself.
[15] abbreviates: wild-type mice, in combination with Exendin-4.

Structures are written as SMILES. Entries after “also recorded” stand apart in the source; their conditions may differ. Where two headings read alike, the source gives them in different places.

Regarding `COc1cc2c(cc1OC)-c1c/c(=N\c3c(C)cc(C)cc3C)n(C)c(=O)n1CC2` [Trequinsin], in [1], the “alpha-cell replication (fraction of alpha-cells that co-expressed ki67)” value is listed as “enhanced alpha-cell replication”. The “beta-cell replication (percentage of PDX-1+ cells that co-expressed ki-67)” value in [2] is recorded as “enhanced beta-cell replication”.

Turning to `CN1CC(=O)N2[C@H](c3ccc4c(c3)OCO4)c3[nH]c4ccccc4c3C[C@@H]2C1=O` [Tadalafil, (6R-trans)-6-(1,3-benzodioxol-5-yl)-2,3,6,7,12,12a-hexahydro-2-methyl-pyrazino[1′,2′:1,6]pyrido[3,4-b]indole-1,4-dione], the plasma insulin levels entry in test [3] is listed as “increased plasma insulin levels; also recorded: significantly increase plasma insulin levels”. The “beta-cell replication (percentage of PDX-1+ cells that co-expressed ki-67)” value in [2] was “did not increase beta-cell replication”. The “glucose tolerance / blood glucose levels” value in test [4] (setting [13]) was “act in concert with Sitagliptin to improve glucose tolerance and lower blood glucose levels”; in [4] (setting [15]) it was “acts additively with Exendin-4 to lower glucose levels”. The glucose tolerance entry in test [4] (setting [14]) and in test [7] was “improves glucose tolerance” in each case. Also, the “plasma GLP-1 levels” value in test [5] is recorded as “significantly increase plasma GLP-1 levels”. In addition, in test [6], the “glucose tolerance via GLP-1R signaling” value is recorded as “improve glucose tolerance via GLP-1R signaling”. The islet insulin secretion result in test [8] is given as “do not enhance islet insulin secretion; also recorded: Neither Tadalafil (FIG. 4A) nor Vardenafil (FIG. 4B) significantly enhanced insulin secretion”.

In the case of `COc1cc(-c2ccc(=O)[nH]n2)ccc1OC(F)F` [Zardaverine, 6-[4-(Difluoromethoxy)-3-methoxyphenyl]-3(2H)-pyridazinone], the “alpha-cell replication (fraction of alpha-cells that co-expressed ki67)” value in [1] is reported as “enhanced alpha-cell replication”. Further, the “beta-cell replication (percentage of PDX-1+ cells that co-expressed ki-67)” value in [2] was “enhanced beta-cell replication”.

For the compound `OCCN(CCO)c1nc(N2CCCCC2)c2nc(N(CCO)CCO)nc(N3CCCCC3)c2n1` [Dipyridamole, 2,6-bis-(diethanolamino)-4,8-dipiperidino-(5,4-d)-pyrimidine], the “alpha-cell replication (fraction of alpha-cells that co-expressed ki67)” value in [1] is reported as “does not; also recorded: did not”. For the same compound, the figures for the “beta-cell replication (percentage of PDX-1+ cells that co-expressed ki-67)” value in test [2] and in [2] (listed as Dioyridamole) were “enhanced beta-cell replication; also recorded: double replication effect” and “enhanced beta-cell replication”, respectively. Moreover, the “glucose tolerance / blood glucose levels” value in [4] (setting [13]) is “acts in concert with dipeptidyl peptidase-4 (DPP-4) inhibitor Sitagliptin to improve glucose tolerance; also recorded: act in concert with Sitagliptin to improve glucose tolerance and lower blood glucose levels”; in [4] (setting [15]) it was “enhances glucose tolerance; also recorded: acts additively with Exendin-4 to lower blood glucose levels”; in test [4] (wild-type mice, in combination with Exendin-4, listed as dipyridamole), “enhances glucose tolerance”; in test [12] (in combination with Exendin-4), “enhances glucose tolerance; also recorded: acts additively with Exendin-4 to lower blood glucose levels”; in test [12] (in combination with Exendin-4, listed as dipyridamole), “enhances glucose tolerance”. The glucose tolerance entry in [4] (setting [14]) is “enhances glucose tolerance”; in test [4] (wild-type mice, compound by itself, listed as dipyridamole), “improves glucose tolerance”; in test [4] (wild-type mice, oral administration) it was “improves glucose tolerance”; in [12] it was “enhances glucose tolerance”; in test [12] (listed as dipyridamole), “improves glucose tolerance”. Besides, the islet insulin secretion result in test [9] is reported as “significantly enhanced insulin secretion”; in [9] (listed as dipyridamole) it was “enhances insulin secretion”; in [8], “significantly enhanced insulin secretion”; in [8] (listed as dipyridamole), “enhances insulin secretion”. The “effect of Exendin-4 on glucose-stimulated insulin secretion” value in test [9] (in combination with Exendin-4) is “enhances the effect of Exendin-4 on glucose-stimulated insulin secretion”; in [8] (rat islets, in combination with Exendin-4), “enhances the effect of Exendin-4 on glucose-stimulated insulin secretion”. Further, the “plasma GLP-1 levels” value in test [5] is reported as “significantly increase plasma GLP-1 levels”. Further, the “inhibition of PDE5 (inhibitor class)” value in test [10] is “effective inhibitor (the inhibitor exhibits at least 50% inhibition of enzymatic activity in an in vitro selectivity assay using a recombinant PDE)”. Also, in test [6], the “glucose tolerance via GLP-1R signaling” value was “improve glucose tolerance via GLP-1R signaling”. For the same compound, the “endogenous GLP-1 secretion” value in [11] is listed as “at least about twice”.

Turning to `CN(C(=O)CCCOc1ccc2[nH]c(=O)ccc2c1)C1CCCCC1` [Cilostamide], the “alpha-cell replication (fraction of alpha-cells that co-expressed ki67)” value in test [1] is listed as “enhanced alpha-cell replication”. The “beta-cell replication (percentage of PDX-1+ cells that co-expressed ki-67)” value in test [2] is “enhanced beta-cell replication”.

The values above are taken from patent publication US20150119399A1, “BETA-CELL REPLICATION PROMOTING COMPOUNDS AND METHODS OF THEIR USE” (President and Fellows of Harvard College, priority 2012, published 2015).
